Molecules are shown by their SMILES.

Experiment [1] deals with T1, NNMT (Homo sapiens, UniProt P40261).
T1 sequence (P40261 1-264): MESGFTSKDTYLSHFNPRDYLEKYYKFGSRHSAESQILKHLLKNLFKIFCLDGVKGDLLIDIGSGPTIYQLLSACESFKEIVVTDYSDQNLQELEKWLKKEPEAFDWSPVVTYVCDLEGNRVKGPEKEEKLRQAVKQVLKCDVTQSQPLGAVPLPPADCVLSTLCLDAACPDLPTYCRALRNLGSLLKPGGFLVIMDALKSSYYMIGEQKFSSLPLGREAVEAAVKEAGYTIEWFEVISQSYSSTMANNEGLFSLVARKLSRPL
Nature of the experiment: biochemical. Details: The full length NNMT proteins (1–264 amino acids) of human & mouse; 6 × His tag (N); TEV cleavage site (ENLYFQG) (N); made in house; host or cells: E. coli Rosetta2(DE3)pLysS. The protocol:
PE-Sciex API-4000 triple quadrupole (PerkinElmerSciex Instruments, Boston, MA) mass spectrometer was employed for this analysis. […] Detection of the ions was performed in the multiple reaction monitoring (MRM) mode, monitoring the transition of the m/z 137 precursor ion to the m/z 92 product ion for MNA and m/z 141 precursor ion to the m/z 84 product ion for d4-MNA (internal standard).
The supernatant was separated and transferred to pre-labeled HPLC vials and analyzed by LC-MS/MS system.
The final assay reaction mixture contained a buffer of 100 mM Tris Hcl pH 7.5, 0.04% BSA, 2 mM dithiothreitol and 1% DMSO.

Experiment [2] concerns the target T2, human NNMT (hNNMT) (Homo sapiens, UniProt P40261).
T2 construct: The full length NNMT proteins (1–264 amino acids) of human & mouse; 6 × His tag (N); TEV cleavage site (ENLYFQG) (N); made in house; host or cells: E. coli Rosetta2(DE3)pLysS
Kind of experiment: Fluorescence based NNMT enzymatic assay (human). Particulars: fluorescence based biochemical assay. The method, then: NNMT activity was measured with the fluorescence enzymatic assay[22],[23]. MNA formed in the NNMT reaction reacts with acetophenone in the presence of KOH and formic acid and forms a fluorescent product 2, 7- naphthyridine. JBSNF-000088 was screened using human, mouse and monkey NNMT enzymes. Different concentrations of inhibitors were preincubated along with the enzyme for 30 minutes at room temperature. Reaction was initiated by addition of SAM and nicotinamide mixture (7 µM, 20 µM, 8 µM SAM and 6 µM, 20 µM, 9 µM nicotinamide for human, mouse and monkey NNMT assays respectively) for 60 minutes at 37 °C. The final assay reaction mixture contained a buffer of 100 mM Tris Hcl pH 7.5, 0.04% BSA, 2 mM dithiothreitol and 1% DMSO. At the end of the incubation, the reaction was stopped by the addition of ethanol: acetophenone mix (75% ethanol: 25% acetophenone) and 5 M potassium hydroxide prepared with 50% ethanol. The reaction was incubated for 15 minutes following which 100 µL of 60% formic acid was added. […] The fluorescent product 2, 7- naphthyridine was measured using a Tecan reader with excitation at 375 nm and emission at 430 nm. The IC50 values were determined by fitting the inhibition curves (percent inhibition versus inhibitor concentration) using a four parametric sigmoidal dose response using GraphPad Prism software.

Experiment [3] concerns the target Opioid Receptor mu (OPRM1) (Homo sapiens, UniProt P35372). Kind of experiment: Selectivity panel: OPRM1. The format is cell-based. The protocol: Supplement 41598_2018_22081_MOESM1_ESM.docx, table 2: Supplementary table 2: Selectivity profile of JBSNF-000088 (at 10 µM) vs a panel of 34 receptors, channels and enzymes. | column: E% (agonistic); I% (antagonistic or inhibitory)

In experiment [4] the test system is Phencyclidine Receptor (PCP). Nature of the experiment: Selectivity panel: PCP. Type of experiment: binding. Particulars: 10 µM. The protocol: (§1) Supplement 41598_2018_22081_MOESM1_ESM.docx, table 2: Supplementary table 2: Selectivity profile of JBSNF-000088 (at 10 µM) vs a panel of 34 receptors, channels and enzymes. | column: I% (antagonistic or inhibitory)
The target of experiment [5] is Adrenoreceptor beta 2 (ADRB2) (Homo sapiens, UniProt P07550). Kind of experiment: Selectivity panel: ADRB2. Type of experiment: cell-based.
Adrenoreceptor beta 2 (ADRB2), sequence (P07550 whole entry): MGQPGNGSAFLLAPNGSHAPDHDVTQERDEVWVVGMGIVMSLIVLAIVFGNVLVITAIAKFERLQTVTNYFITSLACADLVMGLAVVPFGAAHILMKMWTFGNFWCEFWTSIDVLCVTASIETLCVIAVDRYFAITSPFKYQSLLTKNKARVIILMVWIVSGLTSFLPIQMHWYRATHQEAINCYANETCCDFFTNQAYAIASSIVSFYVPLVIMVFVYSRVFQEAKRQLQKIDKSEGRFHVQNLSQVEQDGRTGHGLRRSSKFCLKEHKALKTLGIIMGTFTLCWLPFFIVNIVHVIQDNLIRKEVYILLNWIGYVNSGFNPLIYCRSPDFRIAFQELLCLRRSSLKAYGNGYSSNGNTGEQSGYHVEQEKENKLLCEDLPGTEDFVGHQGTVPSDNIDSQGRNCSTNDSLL
Experiment [6] concerns the target Adenosine Receptor 2A (ADORA2A) (Homo sapiens, UniProt P29274). Nature of the experiment: Selectivity panel: ADORA2A. Type of experiment: cell-based.
In experiment [7] the target is Adenosine Receptor 1 (ADORA1) (Homo sapiens, UniProt P30542). Kind of experiment: Selectivity panel: ADORA1. Type of experiment: cell-based.
Adenosine Receptor 1 (ADORA1), sequence (P30542 whole entry): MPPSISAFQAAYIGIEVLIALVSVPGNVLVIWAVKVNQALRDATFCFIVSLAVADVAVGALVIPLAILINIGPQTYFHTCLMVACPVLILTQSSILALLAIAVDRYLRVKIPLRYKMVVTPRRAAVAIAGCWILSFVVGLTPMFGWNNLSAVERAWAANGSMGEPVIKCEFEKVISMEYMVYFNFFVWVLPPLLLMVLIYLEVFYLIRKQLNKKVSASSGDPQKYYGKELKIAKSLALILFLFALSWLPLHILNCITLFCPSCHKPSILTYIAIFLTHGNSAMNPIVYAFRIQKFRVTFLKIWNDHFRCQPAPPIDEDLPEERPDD
Experiment [8] has as its system Na+/K+ ATPase Pump. Kind of experiment: Selectivity panel: Na+/K+ ATPase. The format is biochemical. Particulars: 10 µM.
The target in experiment [9] is Nicotinic AChR alpha4 beta2 (nAChRa4b2) (Homo sapiens, UniProt P17787+P43681). Nature of the experiment: Selectivity panel: nAChRa4b2. Type of experiment: binding. Particulars: read-out: I% (antagonistic or inhibitory), nAChRa4b2. The protocol:
as §1

Adenosine Receptor 2A (ADORA2A), sequence (P29274 whole entry): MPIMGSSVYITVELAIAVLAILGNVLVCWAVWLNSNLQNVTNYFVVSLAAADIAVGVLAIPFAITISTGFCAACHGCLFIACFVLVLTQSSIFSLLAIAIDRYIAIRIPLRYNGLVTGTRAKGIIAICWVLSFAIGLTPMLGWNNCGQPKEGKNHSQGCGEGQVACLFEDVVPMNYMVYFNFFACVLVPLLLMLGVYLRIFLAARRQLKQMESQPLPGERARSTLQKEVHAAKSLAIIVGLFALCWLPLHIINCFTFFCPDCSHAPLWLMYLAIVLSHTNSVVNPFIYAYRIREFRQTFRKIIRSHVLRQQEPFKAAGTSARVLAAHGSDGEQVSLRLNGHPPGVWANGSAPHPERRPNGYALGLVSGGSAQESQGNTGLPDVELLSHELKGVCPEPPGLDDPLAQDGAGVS
Opioid Receptor mu (OPRM1), sequence (P35372 whole entry): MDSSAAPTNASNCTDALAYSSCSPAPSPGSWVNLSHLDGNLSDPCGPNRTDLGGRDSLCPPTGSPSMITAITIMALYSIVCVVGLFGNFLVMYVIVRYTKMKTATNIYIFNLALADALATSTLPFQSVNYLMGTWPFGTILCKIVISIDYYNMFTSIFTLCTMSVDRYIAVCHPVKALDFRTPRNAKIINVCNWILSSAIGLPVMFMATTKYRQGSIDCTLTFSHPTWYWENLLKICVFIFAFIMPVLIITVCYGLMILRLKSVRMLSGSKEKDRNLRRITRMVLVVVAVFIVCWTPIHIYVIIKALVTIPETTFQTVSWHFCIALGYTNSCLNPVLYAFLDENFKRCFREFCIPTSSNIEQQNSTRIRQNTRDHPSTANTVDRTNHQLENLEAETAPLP
Nicotinic AChR alpha4 beta2 (nAChRa4b2), sequence (P43681 29-627 limits assumed): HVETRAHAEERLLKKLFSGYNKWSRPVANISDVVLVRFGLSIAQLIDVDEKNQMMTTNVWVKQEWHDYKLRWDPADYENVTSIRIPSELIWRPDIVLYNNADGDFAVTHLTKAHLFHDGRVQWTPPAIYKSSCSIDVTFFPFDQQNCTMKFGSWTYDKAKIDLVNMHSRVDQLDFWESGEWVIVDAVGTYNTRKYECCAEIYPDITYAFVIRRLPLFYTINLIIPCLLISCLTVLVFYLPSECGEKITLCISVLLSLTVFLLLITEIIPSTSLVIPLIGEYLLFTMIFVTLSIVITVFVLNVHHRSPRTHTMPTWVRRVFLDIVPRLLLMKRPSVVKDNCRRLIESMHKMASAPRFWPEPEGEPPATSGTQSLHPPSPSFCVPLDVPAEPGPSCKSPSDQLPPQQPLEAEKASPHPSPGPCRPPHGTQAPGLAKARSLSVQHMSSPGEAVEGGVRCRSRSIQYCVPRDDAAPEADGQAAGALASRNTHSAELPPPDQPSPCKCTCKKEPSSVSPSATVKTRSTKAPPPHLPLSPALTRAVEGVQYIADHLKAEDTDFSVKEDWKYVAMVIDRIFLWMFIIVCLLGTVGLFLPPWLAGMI
Nicotinic AChR alpha4 beta2 (nAChRa4b2), sequence (P17787 26-502): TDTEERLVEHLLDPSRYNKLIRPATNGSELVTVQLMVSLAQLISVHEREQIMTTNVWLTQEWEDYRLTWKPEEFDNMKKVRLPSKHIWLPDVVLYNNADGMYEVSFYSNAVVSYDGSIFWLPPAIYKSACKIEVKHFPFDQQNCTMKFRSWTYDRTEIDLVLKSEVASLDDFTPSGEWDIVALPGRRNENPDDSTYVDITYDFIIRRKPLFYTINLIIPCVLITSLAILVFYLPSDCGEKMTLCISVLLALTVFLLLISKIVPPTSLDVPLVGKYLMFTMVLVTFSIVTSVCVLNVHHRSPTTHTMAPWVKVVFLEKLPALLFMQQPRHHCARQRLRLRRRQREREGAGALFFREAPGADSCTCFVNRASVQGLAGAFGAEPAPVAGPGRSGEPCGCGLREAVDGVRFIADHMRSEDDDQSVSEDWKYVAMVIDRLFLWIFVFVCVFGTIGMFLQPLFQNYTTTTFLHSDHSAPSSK

In the case of `COc1ccc(C(N)=O)cn1` [JBSNF-000088, 6-methoxynicotinamide], the results for the IC50 in experiment [1] and in experiment [2] were 2400 nM and 1800 nM, respectively. Besides, the “E% (agonistic), OPRM1” value in experiment [3] (10 µM) was -1%. Further, the inhibition at 10 µM was -8% in [3] (OPRM1, read-out: I% (antagonistic or inhibitory), OPRM1); 1% in [5] (read-out: I% (antagonistic or inhibitory), ADRB2); 2% in experiment [6] (read-out: I% (antagonistic or inhibitory), ADORA2A); -1% in experiment [7] (read-out: I% (antagonistic or inhibitory), ADORA1); 5% in [9]. The “I% (antagonistic or inhibitory), PCP” value in experiment [4] is reported as -11%. Also, in experiment [5] (10 µM), the “E% (agonistic), ADRB2” value stood at 1%. In addition, the “E% (agonistic), ADORA2A” value in [6] (10 µM) came out at 4%. Further, the “E% (agonistic), ADORA1” value in [7] (10 µM) is recorded as -3%. Also, the “I% (antagonistic or inhibitory), Na+/K+ ATPase Pump” value in experiment [8] was determined as 0%.

Values taken from paper PMC5826917, “A small molecule inhibitor of Nicotinamide N-methyltransferase for the treatment of metabolic disorders” (Scientific Reports, 2018).
